# Results from US8507219B2, “Method of treating inflammation with statins” (MUSC Foundation for Research Development, priority 1997, dated 2013).
# “Also recorded” adds a separate entry of the source. Like-named read-outs stand apart in the source and are kept apart here.
# Tests used:
# [1] = system: ceramide production in rat primary astrocytes; experiment: Degradation of sphingomyelin to ceramide (DAG kinase assay, HPTLC) in rat primary astrocytes; assay type: cell-based
# Procedure: Lipid extraction Approximately 1.0×10^6 cells were exposed to different cytokines in the presence or absence of antioxidants for different periods and lipids were extracted according to the methods described by Welsh (1996).
# Quantification of sphingomyelin by HPTLC and densitometry Sphingomyelin was separated from total lipid extracts by HPTLC (LPK-plates from Whatman Labsales, USA) as described (Ganser et al., 1988) for phospholipids with the modification, that the plate was overrun for 30 min during its development and was dried overnight in vacuum desicator. Sphingomyelin was quantitated by densitometric scanning using Imaging Densitometer (Model GS-670; Bio-Rad, USA) and software provided with the instrument by the manufacturer.
# Quantification of ceramide levels by diacylglycerol kinase assay Ceramide content was quantified essentially according to Priess et al. using diacylglycerol (DAG) kinase and [γ-^32P]ATP (Priess et al., 1986). Briefly, dried lipids were solubilized in 20 μl of an octyl β-D-glucoside/cardiolipin solution (7.5% octyl β-D-glucoside, 5 mM cardiolipin in 1 mM DTPA) by sonication in a sonicator bath. […] The labeled ceramide 1-phosphate was resolved with a solvent system consisting of methyl acetate: n-propanol:chloroform:methanol:0.25% KCl in water:acetic-acid (100:100:100:40:36:2). A standard sample of ceramide was phosphorylated under identical conditions and developed in parallel. […] Quantification of ceramide 1-phosphate was carried out by autoradiography and densitometric scanning using Imaging Densitometer (Model GS-670; Bio-Rad, USA). Values are expressed either as arbitrary units (absorbance) or as percent change.
# Lipid Extraction Approximately 1.0×10^6 cells were exposed to different cytokines in the presence or absence of antioxidants for different periods, and lipids were extracted according to the methods described by Welsh (1996).
# Quantification of Sphingomyelin by High Performance TLC and Densitometry Sphingomyelin was separated from total lipid extracts by high performance TLC (LHPK plates from Whatman) as described by Ganser et al. (1988) for phospholipids with the following modification: the plate was overrun for 30 min during its development and was dried overnight in vacuum desiccator. Sphingomyelin was quantitated by densitometric scanning using Imaging Densitometer (model GS-670; Bio-Rad), and software was provided with the instrument by the manufacturer.
# Quantification of Ceramide Levels by Diacylglycerol Kinase Assay Ceramide content was quantified essentially according to Priess et al. (1986) using diacylglycerol (DAG) kinase and [γ-^32P]ATP. Briefly, dried lipids were solubilized in 20 μl of an octyl β-D-glucoside/cardiolipin solution (7.5% octyl β-D-glucoside, 5 mM cardiolipin in 1 mM DTPA) by sonication in a sonicator bath. […] The labeled ceramide-1-phosphate was resolved with a solvent system consisting of methyl acetate:n-propyl alcohol:chloroform:methanol, 0.25% KCl in water:acetic acid (100:100:100:40:36:2). A standard sample of ceramide was phosphorylated under identical conditions and developed in parallel. […] Quantification of ceramide-1-phosphate was carried out by autoradiography and densitometric scanning using Imaging Densitometer (model GS-670; Bio-Rad). Values are expressed either as arbitrary units (absorbance) or as percent change.
# [2] = system: cultured skin fibroblasts of X-ALD; experiment: β-oxidation of lignoceric acid in cultured skin fibroblasts of X-ALD; assay type: cell-based, human; details: etomoxir, inhibitor of mitochondrial β-oxidation
# iNOS = experiment: Expression of iNOS protein (immunoblot) and mRNA (Northern) in rat primary astrocytes; assay type: cell-based
# Procedure: (§1) Immunoblot analysis for iNOS Following 24 h incubation in the presence or absence of stimuli by different cytokines or LPS, macrophages were scraped off, washed with Hank's buffer, and homogenized in 50 mM Tris-HCl (pH 7.4) containing protease inhibitors (1 nM PMSF, 5 μg/ml aprotinin, 5 μg/ml pepstatin A, and 5 μg/ml leupeptin). After electrophoresis the proteins were transferred onto a nitrocellulose membrane, and the iNOS band was visualized by immunoblotting with antibodies against mouse macrophage iNOS and [^125I]-labeled protein A (Singh et al., 1988).
# RNA isolation, Northern blot analysis, and reverse-transcriptase coupled polymerase chain reaction (RT-PCR) Stimulated peritoneal macrophages were taken out from culture dishes directly by adding Ultraspec-II RNA reagent (Biotecx Laboratories Inc.) and total RNA was isolated according to the manufacturer's protocol. For northern blot analyses, 20 μg of total RNA was electrophoresed on 1.2% denaturing formaldehyde-agarose gels, electrotransferred to Hybond-Nylon Membrane (Amersham) and hybridized at 68° C. with ^32P-labeled cDNA probe using Express Hyb hybridization solution (Clontech) as described by the manufacturer. […]; After hybridization filters were washed two to three times in solution I (2×SSC, 0.05% SDS) for 1 h at room temperature followed by solution II (0.1×SSC, 0.1% SDS) at 50° C. for another hour. The membranes were then dried and exposed to X-ray film (Kodak). The same filters were stripped and rehybridized with probes for GAPDH. The relative mRNA content for iNOS was measured after scanning the bands with a Biorad (Model GS-670) imaging densitometer.
# as §1, with “of” for “of stimuli by”, “stimuli, cells” for “cytokines or LPS, macrophages”, “inhibitors.” for “inhibitors (1 nM PMSF, 5 μg/ml aprotinin, 5 μg/ml pepstatin A, and 5 μg/ml leupeptin).”, “A.” for “A (Singh et al., 1988).”
# RNA isolation and Northern blot analysis Cells were taken out from culture dishes directly by adding Ultraspec-II RNA reagent (Biotecx Laboratories Inc.) and total RNA was isolated according to the manufacturer's protocol. For Northern blot analyses, 20 μg of total RNA was electrophoresed on 1.2% denaturing formaldehyde-agarose gels, electrotransferred to Hybond-Nylon Membrane (Amersham) and hybridized at 68° C. with ^32P-labeled cDNA probe using Express Hyb hybridization solution (Clontech) as described by the manufacturer. […]; After hybridization filters were washed two or three times in solution I (2×SSC, 0.05% SDS) for one hour at room temperature followed by solution II (0.1×SSC, 0.1% SDS) at 50° C. for another hour. The membranes were then dried and exposed with X-ray films (Kodak). The same filters were stripped and rehybridized with probes for GAPDH. The relative mRNA content for iNOS was measured after scanning the bands with a Biorad (Model GS-670) imaging densitometer.
# as §1, with “After a” for “Following”, “of” for “of stimuli by”, “stimuli, cells” for “cytokines or LPS, macrophages”, “mM” for “nM”, “A.” for “A (Singh et al., 1988).”
# RNA isolation and Northern blot analysis Cells were taken out from culture dishes directly by adding Ultraspec-II RNA reagent (Biotecx Laboratories Inc., Houston, Tex.), and total RNA was isolated according to the manufacturer's protocol. […]
# [3] = system: NO production in rat resident macrophages; experiment: LPS-/cytokine-induced NO production (nitrite) in rat resident peritoneal macrophages; assay type: cell-based
# Procedure: Isolation of Rat Macrophages and Induction of NO Production Resident macrophages were obtained from rats by peritoneal lavage with sterile RPMI 1640 medium containing 1% fetal bovine serum and 100 μg/ml gentamicin (Wang et al., 1995). Cells were washed three times with RPMI 1640 at 4° C. All cell cultures were maintained at 37° C. in a humidified incubator containing 5% CO2 in air. Macrophages, at a concentration of 2×10^6/ml in RPMI 1640 medium containing L-glutamine and gentamicin, were added in volumes of 800 μl to a 35 mm plate. After 1 h, nonadherent cells were removed by washing and 800 μl of serum-free RPMI 1640 medium with various stimuli were added to the adherent cells. After 24 h incubation in 5% CO2 in air at 37° C., the culture supernatants were transferred to measure NO production (Geng et al., 1995; Wang et al., 1995).
# Isolation of rat macrophages and induction of NO production Resident macrophages were obtained from rat by peritoneal lavage with sterile RPMI 1640 medium containing 1% fetal bovine serum and 100 μg/ml gentamicin as described herein. Cells were washed three times with RPMI 1640 at 4° C. All cell cultures were maintained at 37° C. in a humidified incubator containing 5% CO2 in air. Macrophages at a concentration of 2×10^6/ml in RPMI 1640 medium containing L-glutamine and gentamicin were added in volumes of 800 μl to a 35 mm plate. After 1 h, nonadherent cells were removed by washing and 800 μl of serum-free RPMI 1640 medium with various stimuli were added to the adherent cells. After incubation in 5% CO2 in air at 37° C., culture supernatants were transferred to measure NO production.
# Isolation of rat macrophages and induction of NO production Resident macrophages were obtained from rat by peritoneal lavage with sterile RPMI 1640 medium containing 1% FBS and 100 μg/ml gentamicin. Cells were washed three times with RPMI 1640 at 4° C., and were maintained at 37° C. in a humidified incubator containing 5% CO2 in air. Macrophages at a concentration of […] in RPMI 1640 medium containing L-glutamine and gentamicin were added in volumes of 800 μl to a 35-mm plate. After 1 h, nonadherent cells were removed by washing, and 800 μl of serum-free RPMI 1640 medium with various stimuli was added to the adherent cells. After 24 h the culture supernatants were transferred to measure NO production.
# Protein was measured (Bradford, 1976).
# [4] = 100 μM mevalonate, 200 μM farnesyl pyrophosphate, 10 μM ubiquinone or cholesterol
molecule,measurement,setting,value
"Nc1nc[nH]n1 [ATZ, aminotriazole]",increase in ceramide production,[1],more than 5 fold
CCOC(=O)[C@@]1(CCCCCCOc2ccc(Cl)cc2)CO1 [Etomoxir],effect on stimulated lignoceric acid β-oxidation,[2],had no effect on cAMP-mediated stimulation of lignoceric acid β-oxidation; also recorded: had no effect on lovastatin- or NaPA-mediated stimulation of lignoceric acid β-oxidation
"CC(C)=CCC/C(C)=C/CC/C(C)=C/COP(=O)(O)OP(=O)(O)O [FPP, farnesyl pyrophosphate]",rescue of the inhibition of iNOS expression and NF-kβ activation by lovastatin / NaPA,iNOS,substantially reversed the inhibitory effect of lovastatin
"OO [H2O2, hydrogen peroxide]",increase in ceramide production,[1],about 7 fold
"CNC(=N)NCCC[C@H](N)C(=O)O [L-NMA, N^G-methyl-L-arginine]",Nitrite,"[3]; LPS 1.0 μg/ml, 24 h, NAC 20 mM 2 h before LPS, NMA 0.1 mM, arginase 100 units/ml with LPS",15.8 ± 2.2 nmol/mg Protein^24h
same,Inhibition (%),"[3]; of LPS (1.0 μg/ml)-induced nitrite, NAC 20 mM 2 h before, NMA 0.1 mM, arginase 100 units/ml with LPS",87%
CC(=O)O [acetate],degradation of sphingomyelin to ceramide / ceramide production,[1],had no effect on the degradation of SM to ceramide
"CCCCS(=N)(=O)CCC(N)C(=O)O [buthione (S,R)-sulfoximine]",degradation of sphingomyelin to ceramide / ceramide production,[1],also decreased the level of GSH and induced the production of ceramide
C[C@@]12C(=O)OC(=O)[C@]1(C)[C@H]1CC[C@@H]2O1 [cantharidin],LPS-mediated induction of iNOS protein and mRNA,iNOS; LPS 1.0 μg/ml,enhanced the LPS-mediated induction of iNOS protein and mRNA
same,LPS-induced NO production,"[3]; LPS 1.0 μg/ml, 24 h",inhibited the LPS-induced NO production in rat peritoneal macrophages
CC(C)CCC[C@@H](C)[C@H]1CC[C@H]2[C@@H]3CC=C4C[C@@H](O)CC[C@]4(C)[C@H]3CC[C@]12C [cholesterol],rescue of the inhibition of iNOS expression and NF-kβ activation by lovastatin / NaPA,iNOS; [4],did not prevent the inhibitory effect of lovastatin and NaPA
CC(O)(CCO)CC(=O)O (centres unmarked) [mevalonate],rescue of the inhibition of iNOS expression and NF-kβ activation by lovastatin / NaPA,iNOS,substantially reversed the inhibitory effect of lovastatin
COC1=C(OC)C(=O)C(C/C=C(\C)CC/C=C(\C)CC/C=C(\C)CC/C=C(\C)CC/C=C(\C)CC/C=C(\C)CC/C=C(\C)CC/C=C(\C)CC/C=C(\C)CCC=C(C)C)=C(C)C1=O [ubiquinone],rescue of the inhibition of iNOS expression and NF-kβ activation by lovastatin / NaPA,iNOS; [4],did not prevent the inhibitory effect of lovastatin and NaPA
Microcystin,LPS-mediated induction of iNOS protein and mRNA,iNOS,enhanced the LPS-mediated induction of iNOS protein and mRNA
